Assay results from BindingDB's records for doi:10.1021/jm950372w (Rotta Research Laboratorium, 1996).
Where a name gives a salt, the structure may show the parent alone.

Key:
[1] = biological target: Gastrin/cholecystokinin type B receptor (Oryctolagus cuniculus); test: In vitro inhibition of gastrin-induced [Ca2+] cytosolic elevation in isolated rabbit parietal cells
[2] = biological target: Gastrin/cholecystokinin type B receptor (Cavia porcellus); test: Inhibition of binding of [3H]N-Me-N-Leu-CCK-8 to cholecystokinin type B receptor in guinea pig brain cortex

Structure (SMILES)	IC50 [1] [nM]	IC50 [2] [nM]
O=C(O)CC[C@H](NC(=O)CCC(NC(=O)c1cc(Cl)cc(Cl)c1)C(=O)N1CCC2(CCCC2)CC1)C(=O)Nc1ccc2c(c1)CCC2 (stereo partly drawn) [(S)-4-[5-(8-Aza-spiro[4.5]dec-8-yl)-4-(3,5-dichloro-benzoylamino)-5-oxo-pentanoylamino]-4-(indan-5-ylcarbamoyl)-butyric acid]	118	727
O=C(O)CC[C@H](NC(=O)CCC(NC(=O)c1cc(Cl)cc(Cl)c1)C(=O)N1CCC2(CCCC2)CC1)C(=O)Nc1cccc2ncccc12 (stereo partly drawn) [(S)-4-[5-(8-Aza-spiro[4.5]dec-8-yl)-4-(3,5-dichloro-benzoylamino)-5-oxo-pentanoylamino]-4-(quinolin-5-ylcarbamoyl)-butyric acid; hydrochloride]	76	136
O=C(O)CC[C@H](NC(=O)CCC(NC(=O)c1cc(Cl)cc(Cl)c1)C(=O)N1CCC2(CCCC2)CC1)C(=O)Nc1cccc2cccnc12 (stereo partly drawn) [(S)-4-[5-(8-Aza-spiro[4.5]dec-8-yl)-4-(3,5-dichloro-benzoylamino)-5-oxo-pentanoylamino]-4-(quinolin-8-ylcarbamoyl)-butyric acid; hydrochloride]	54	108
CCCN(CCC)C(=O)[C@H](CCC(=O)O)NC(=O)CCC(NC(=O)c1cc(Cl)cc(Cl)c1)C(=O)N1CCC2(CCCC2)CC1 (stereo partly drawn) [(S)-4-[5-(8-Aza-spiro[4.5]dec-8-yl)-4-(3,5-dichloro-benzoylamino)-5-oxo-pentanoylamino]-4-dipropylcarbamoyl-butyric acid]	119	299
O=C(O)CC[C@H](NC(=O)CCC(NC(=O)c1cc(Cl)cc(Cl)c1)C(=O)N1CCC2(CCCC2)CC1)C(=O)N1CCc2ccccc2C1 (stereo partly drawn) [(S)-4-[5-(8-Aza-spiro[4.5]dec-8-yl)-4-(3,5-dichloro-benzoylamino)-5-oxo-pentanoylamino]-5-(3,4-dihydro-1H-isoquinolin-2-yl)-5-oxo-pentanoic acid]	49	140
O=C(O)CNC(=O)CCC(NC(=O)c1cc(Cl)cc(Cl)c1)C(=O)N1CCC2(CCCC2)CC1 (centres undefined) [[5-(8-Aza-spiro[4.5]dec-8-yl)-4-(3,5-dichloro-benzoylamino)-5-oxo-pentanoylamino]-acetic acid]	1040	1020
O=C(CCC(NC(=O)c1cc(Cl)cc(Cl)c1)C(=O)N1CCC2(CCCC2)CC1)NC(C(=O)O)c1ccccc1 (centres undefined) [[5-(8-Aza-spiro[4.5]dec-8-yl)-4-(3,5-dichloro-benzoylamino)-5-oxo-pentanoylamino]-phenyl-acetic acid]	80	390
CN(CC(=O)O)C(=O)CCC(NC(=O)c1cc(Cl)cc(Cl)c1)C(=O)N1CCC2(CCCC2)CC1 (centres undefined) [{[5-(8-Aza-spiro[4.5]dec-8-yl)-4-(3,5-dichloro-benzoylamino)-5-oxo-pentanoyl]-methyl-amino}-acetic acid]	2810	1570

Continued by falling IC50 [1], values first:

IC50 [1] [nM]	IC50 [2] [nM]	Structure (SMILES)
48	135	CCCCCN(CCCCC)C(=O)[C@H](CCC(=O)O)NC(=O)CCC(NC(=O)c1cc(Cl)cc(Cl)c1)C(=O)N1CCC2(CCCC2)CC1 (stereo partly drawn) [(S)-4-[5-(8-Aza-spiro[4.5]dec-8-yl)-4-(3,5-dichloro-benzoylamino)-5-oxo-pentanoylamino]-4-dipentylcarbamoyl-butyric acid]
37	141	O=C(O)CC[C@H](NC(=O)CCC(NC(=O)c1cc(Cl)cc(Cl)c1)C(=O)N1CCC2(CCCC2)CC1)C(=O)N1CCC2(CCCC2)CC1 (stereo partly drawn) [(S)-5-(8-Aza-spiro[4.5]dec-8-yl)-4-[5-(8-aza-spiro[4.5]dec-8-yl)-4-(3,5-dichloro-benzoylamino)-5-oxo-pentanoylamino]-5-oxo-pentanoic acid]
28	185	O=C(O)CC[C@H](NC(=O)CCC(NC(=O)c1cc(Cl)cc(Cl)c1)C(=O)N1CCC2(CCCC2)CC1)C(=O)N1CCC2CCCCC2C1 (stereo partly drawn) [(S)-4-[5-(8-Aza-spiro[4.5]dec-8-yl)-4-(3,5-dichloro-benzoylamino)-5-oxo-pentanoylamino]-5-(octahydro-isoquinolin-2-yl)-5-oxo-pentanoic acid]
7	20	O=C(O)CC[C@H](NC(=O)CCC(NC(=O)c1cc(Cl)cc(Cl)c1)C(=O)N1CCC2(CCCC2)CC1)C(=O)Nc1cccc2ccccc12 (stereo partly drawn) [(S)-4-[5-(8-Aza-spiro[4.5]dec-8-yl)-4-(3,5-dichloro-benzoylamino)-5-oxo-pentanoylamino]-4-(naphthalen-1-ylcarbamoyl)-butyric acid]
